The values that follow come from patent US8076487B2, “Pyridone derivative and herbicide” (Kumiai Chemical Industry Co., Ltd., priority 2006, dated 2011).

Type in all cases: in vivo
Assay [1] concerns Japanese bulrush (Scirpus juncoides Roxb.). As to the kind of experiment: Test Example 1: herbicidal effect by soil application to paddy field. As to conditions: paddy field soil application; active ingredient 1,000 g per 1 hectare; wettable powder added dropwise to water surface the day after sowing; examined on the 21st day after application. A digest of the protocol: (§1)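 Under greenhouse conditions, seeds sown on puddled paddy soil in 100 cm2 pots under 3 cm of standing water received the test compound; injury was assessed with a standard scoring scheme three weeks (day 21) after treatment.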

Assay [2] concerns early watergrass (Echinochloa oryzicola Vasing). The assay is described as above. To be noted: paddy field soil application; active ingredient 1,000 g per 1 hectare; wettable powder added dropwise to water surface the day after sowing; examined on the 21st day after application. The essentials:
as §1

In assay [3] the test system is heartshape false pickerelweed (Monochoria vaginalis (Burm.f.) C.Presl). Described as above. As to conditions: paddy field soil application; active ingredient 1,000 g per 1 hectare; wettable powder added dropwise to water surface the day after sowing; examined on the 21st day after application. The essentials: as §1
Assay [4] has as its system barnyardgrass (Echinochloa crus-galli (L.) P. Beauv. var. crus-galli). Put plainly: Test Example 2: herbicidal effect by soil application to upland field. As to conditions: soil surface spray, upland field soil, 1,000 g active ingredient per hectare, 21st day after application. The procedure: (§2) [table] Test Example 2 Test on Herbicidal Effect by Soil Application to Upland field In a 80 cm2 plastic pot, field soil was filled. Seeds of barnyardgrass (Echinochloa crus-galli (L.) P. Beauv. var. crus-galli), green foxtail (Setaria viridis (L.) P. Beauv.), velvetleaf (Abutilon theophrasti medicus), and slender amaranth (Amaranthus viridis L.) were sown and covered with soils. The wettable powder prepared according to Formulation Example 1 was diluted in water and a 1,000 liter equivalent amount per 1 hectare so that the active ingredient becomes 1,000 g per 1 hectare was uniformly sprayed on a soil surface using a small sprayer. Then, on the 21st day after the application to the plants grew in a greenhouse, the herbicidal effect was examined in accordance with a standard shown in Table 34.

Assay [5] relates to green foxtail (Setaria viridis (L.) P. Beauv.). The assay is described as above. As to conditions: soil surface spray, upland field soil, 1,000 g active ingredient per hectare, 21st day after application. The procedure: as §2
Assay [6] deals with slender amaranth (Amaranthus viridis L.). Described as above. As to conditions: soil surface spray, upland field soil, 1,000 g active ingredient per hectare, 21st day after application. On the procedure: as §2
Assay [7] has as its system velvetleaf (Abutilon theophrasti medicus). The assay is described as above. As to conditions: soil surface spray, upland field soil, 1,000 g active ingredient per hectare, 21st day after application. On the procedure: as §2

`CCCCCNn1c(C(F)(F)F)ccc(C(=O)C2=C(O)CCCC2=O)c1=O` [I-165]: in assay [1], the “herbicidal effect, Scirpus juncoides Roxb.” value was 5 (90% or more of herbicidal effect and crop phytotoxicity). Further, the “herbicidal effect, Echinochloa oryzicola Vasing” value in assay [2] is 5 (90% or more of herbicidal effect and crop phytotoxicity). Further, the “herbicidal effect, Monochoria vaginalis (Burm. f.) C. Presl” value (“herbicidal effect, Monochoria vaginalis” for short) in assay [3] is 5 (90% or more of herbicidal effect and crop phytotoxicity). The “herbicidal effect (index), Barnyardgrass” value in assay [4] is 5 (90% or more of herbicidal effect and crop phytotoxicity). Further, the “herbicidal effect (index), Green Foxtail” value in assay [5] was 3 (50 to less than 70% of herbicidal effect and crop phytotoxicity). In addition, the “herbicidal effect (index), Slender Amaranth” value in assay [6] was 5 (90% or more of herbicidal effect and crop phytotoxicity). For the same molecule, the “herbicidal effect (index), Velvetleaf” value in assay [7] is 5 (90% or more of herbicidal effect and crop phytotoxicity).

Take `O=C1CCCC(O)=C1C(=O)c1ccc(C(F)(F)F)n(NCCCCl)c1=O` [I-167]: in assay [1], the “herbicidal effect, Scirpus juncoides Roxb.” value was 5 (90% or more of herbicidal effect and crop phytotoxicity). Moreover, the “herbicidal effect, Echinochloa oryzicola Vasing” value in assay [2] was 5 (90% or more of herbicidal effect and crop phytotoxicity). In addition, the “herbicidal effect, Monochoria vaginalis” value in assay [3] is 5 (90% or more of herbicidal effect and crop phytotoxicity). For the same molecule, in assay [4], the “herbicidal effect (index), Barnyardgrass” value was 5 (90% or more of herbicidal effect and crop phytotoxicity). Besides, the “herbicidal effect (index), Green Foxtail” value in assay [5] was 5 (90% or more of herbicidal effect and crop phytotoxicity). For the same molecule, the “herbicidal effect (index), Slender Amaranth” value in assay [6] was 5 (90% or more of herbicidal effect and crop phytotoxicity). The “herbicidal effect (index), Velvetleaf” value in assay [7] was 5 (90% or more of herbicidal effect and crop phytotoxicity).

Consider `CN(c1ccccc1)n1c(C(F)(F)F)ccc(C(=O)C2=C(O)CCCC2=O)c1=O` [I-182], for which, in assay [1], the “herbicidal effect, Scirpus juncoides Roxb.” value is 5 (90% or more of herbicidal effect and crop phytotoxicity). Moreover, the “herbicidal effect, Echinochloa oryzicola Vasing” value in assay [2] is 5 (90% or more of herbicidal effect and crop phytotoxicity). The “herbicidal effect, Monochoria vaginalis” value in assay [3] is 5 (90% or more of herbicidal effect and crop phytotoxicity). Also, the “herbicidal effect (index), Barnyardgrass” value in assay [4] is 5 (90% or more of herbicidal effect and crop phytotoxicity). For the same molecule, in assay [5], the “herbicidal effect (index), Green Foxtail” value was 4 (70 to less than 90% of herbicidal effect and crop phytotoxicity). For the same molecule, the “herbicidal effect (index), Slender Amaranth” value in assay [6] is 5 (90% or more of herbicidal effect and crop phytotoxicity). In addition, the “herbicidal effect (index), Velvetleaf” value in assay [7] was 5 (90% or more of herbicidal effect and crop phytotoxicity).

For `COn1c(C(F)(F)F)ccc(C(=O)C2=C(O)CCCC2=O)c1=O` [I-202], the “herbicidal effect, Scirpus juncoides Roxb.” value in assay [1] was 5 (90% or more of herbicidal effect and crop phytotoxicity). Further, the “herbicidal effect, Echinochloa oryzicola Vasing” value in assay [2] is 5 (90% or more of herbicidal effect and crop phytotoxicity). Also, the “herbicidal effect, Monochoria vaginalis” value in assay [3] was 5 (90% or more of herbicidal effect and crop phytotoxicity). For the same molecule, the “herbicidal effect (index), Barnyardgrass” value in assay [4] is 5 (90% or more of herbicidal effect and crop phytotoxicity). In assay [5], the “herbicidal effect (index), Green Foxtail” value was 5 (90% or more of herbicidal effect and crop phytotoxicity). Also, the “herbicidal effect (index), Slender Amaranth” value in assay [6] is 5 (90% or more of herbicidal effect and crop phytotoxicity). In addition, the “herbicidal effect (index), Velvetleaf” value in assay [7] was 5 (90% or more of herbicidal effect and crop phytotoxicity).

Take `CCn1c(C(F)(F)Cl)ccc(C(=O)C2=C(O)CCCC2=O)c1=O` [I-226]: the “herbicidal effect, Scirpus juncoides Roxb.” value in assay [1] is 5 (90% or more of herbicidal effect and crop phytotoxicity). Further, the “herbicidal effect, Echinochloa oryzicola Vasing” value in assay [2] was 5 (90% or more of herbicidal effect and crop phytotoxicity). Besides, the “herbicidal effect, Monochoria vaginalis” value in assay [3] was 5 (90% or more of herbicidal effect and crop phytotoxicity). In addition, in assay [4], the “herbicidal effect (index), Barnyardgrass” value is 4 (70 to less than 90% of herbicidal effect and crop phytotoxicity). Further, in assay [5], the “herbicidal effect (index), Green Foxtail” value is 3 (50 to less than 70% of herbicidal effect and crop phytotoxicity). Besides, the “herbicidal effect (index), Slender Amaranth” value in assay [6] was 5 (90% or more of herbicidal effect and crop phytotoxicity). Moreover, in assay [7], the “herbicidal effect (index), Velvetleaf” value was 5 (90% or more of herbicidal effect and crop phytotoxicity).

As to `Cc1ccc(C(=O)C2=C(O)CCCC2=O)c(=O)n1-c1ccc(Cl)cc1` [I-233], in assay [1], the “herbicidal effect, Scirpus juncoides Roxb.” value is 5 (90% or more of herbicidal effect and crop phytotoxicity). For the same molecule, in assay [2], the “herbicidal effect, Echinochloa oryzicola Vasing” value is 5 (90% or more of herbicidal effect and crop phytotoxicity). In addition, the “herbicidal effect, Monochoria vaginalis” value in assay [3] is 5 (90% or more of herbicidal effect and crop phytotoxicity). Further, in assay [4], the “herbicidal effect (index), Barnyardgrass” value is 4 (70 to less than 90% of herbicidal effect and crop phytotoxicity). In assay [5], the “herbicidal effect (index), Green Foxtail” value is 3 (50 to less than 70% of herbicidal effect and crop phytotoxicity). For the same molecule, in assay [6], the “herbicidal effect (index), Slender Amaranth” value was 5 (90% or more of herbicidal effect and crop phytotoxicity). The “herbicidal effect (index), Velvetleaf” value in assay [7] is 5 (90% or more of herbicidal effect and crop phytotoxicity).

As for `Cn1c(C(F)(F)F)ccc(C(=O)C2=C(Sc3ccc(Cl)cc3Cl)CCCC2=O)c1=O` [II-14], the “herbicidal effect, Scirpus juncoides Roxb.” value in assay [1] was 5 (90% or more of herbicidal effect and crop phytotoxicity). The “herbicidal effect, Echinochloa oryzicola Vasing” value in assay [2] is 5 (90% or more of herbicidal effect and crop phytotoxicity). Also, the “herbicidal effect, Monochoria vaginalis” value in assay [3] was 5 (90% or more of herbicidal effect and crop phytotoxicity). The “herbicidal effect (index), Barnyardgrass” value in assay [4] is 4 (70 to less than 90% of herbicidal effect and crop phytotoxicity). Besides, in assay [5], the “herbicidal effect (index), Green Foxtail” value was 3 (50 to less than 70% of herbicidal effect and crop phytotoxicity). The “herbicidal effect (index), Slender Amaranth” value in assay [6] is 5 (90% or more of herbicidal effect and crop phytotoxicity). Besides, the “herbicidal effect (index), Velvetleaf” value in assay [7] is 5 (90% or more of herbicidal effect and crop phytotoxicity).

In the case of `COC1=C(C(=O)c2ccc(C(F)(F)F)n(C)c2=O)C(=O)CCC1` [II-22], the “herbicidal effect, Scirpus juncoides Roxb.” value in assay [1] was 5 (90% or more of herbicidal effect and crop phytotoxicity). For the same molecule, the “herbicidal effect, Echinochloa oryzicola Vasing” value in assay [2] was 5 (90% or more of herbicidal effect and crop phytotoxicity). In addition, in assay [3], the “herbicidal effect, Monochoria vaginalis” value is 5 (90% or more of herbicidal effect and crop phytotoxicity). Also, in assay [4], the “herbicidal effect (index), Barnyardgrass” value was 4 (70 to less than 90% of herbicidal effect and crop phytotoxicity). In addition, the “herbicidal effect (index), Green Foxtail” value in assay [5] was 4 (70 to less than 90% of herbicidal effect and crop phytotoxicity). The “herbicidal effect (index), Slender Amaranth” value in assay [6] was 5 (90% or more of herbicidal effect and crop phytotoxicity). Besides, in assay [7], the “herbicidal effect (index), Velvetleaf” value is 5 (90% or more of herbicidal effect and crop phytotoxicity).

On to `O=C(C1=C(O)C2CCC(C2)C1=O)c1ccc(C(F)(F)F)n(-c2c(F)cccc2F)c1=O` (centres unmarked) [III-37], for which, in assay [1], the “herbicidal effect, Scirpus juncoides Roxb.” value is 4 (70 to less than 90% of herbicidal effect and crop phytotoxicity). Besides, the “herbicidal effect, Echinochloa oryzicola Vasing” value in assay [2] is 5 (90% or more of herbicidal effect and crop phytotoxicity). The “herbicidal effect, Monochoria vaginalis” value in assay [3] was 5 (90% or more of herbicidal effect and crop phytotoxicity). In addition, the “herbicidal effect (index), Barnyardgrass” value in assay [4] is 4 (70 to less than 90% of herbicidal effect and crop phytotoxicity). The “herbicidal effect (index), Green Foxtail” value in assay [5] is 4 (70 to less than 90% of herbicidal effect and crop phytotoxicity). The “herbicidal effect (index), Slender Amaranth” value in assay [6] is 4 (70 to less than 90% of herbicidal effect and crop phytotoxicity). Also, the “herbicidal effect (index), Velvetleaf” value in assay [7] was 5 (90% or more of herbicidal effect and crop phytotoxicity).

Consider `Cn1c(C(F)(F)F)ccc(C(=O)C2=C(O)C3C=CC(C3)C2=O)c1=O` (centres unmarked) [III-42], for which the “herbicidal effect, Scirpus juncoides Roxb.” value in assay [1] is 5 (90% or more of herbicidal effect and crop phytotoxicity). Moreover, in assay [2], the “herbicidal effect, Echinochloa oryzicola Vasing” value was 5 (90% or more of herbicidal effect and crop phytotoxicity). For the same molecule, in assay [3], the “herbicidal effect, Monochoria vaginalis” value is 5 (90% or more of herbicidal effect and crop phytotoxicity). Also, the “herbicidal effect (index), Barnyardgrass” value in assay [4] is 4 (70 to less than 90% of herbicidal effect and crop phytotoxicity). Besides, in assay [5], the “herbicidal effect (index), Green Foxtail” value was 3 (50 to less than 70% of herbicidal effect and crop phytotoxicity). Moreover, the “herbicidal effect (index), Slender Amaranth” value in assay [6] was 5 (90% or more of herbicidal effect and crop phytotoxicity). Further, in assay [7], the “herbicidal effect (index), Velvetleaf” value was 5 (90% or more of herbicidal effect and crop phytotoxicity).

Regarding `CC(CCn1c(C(F)(F)F)ccc(C(=O)c2cnn(C)c2O)c1=O)=C(F)F` [IV-32], the “herbicidal effect, Scirpus juncoides Roxb.” value in assay [1] is 5 (90% or more of herbicidal effect and crop phytotoxicity). In addition, in assay [2], the “herbicidal effect, Echinochloa oryzicola Vasing” value was 5 (90% or more of herbicidal effect and crop phytotoxicity). In addition, the “herbicidal effect, Monochoria vaginalis” value in assay [3] was 5 (90% or more of herbicidal effect and crop phytotoxicity). Further, the “herbicidal effect (index), Barnyardgrass” value in assay [4] was 4 (70 to less than 90% of herbicidal effect and crop phytotoxicity). Besides, the “herbicidal effect (index), Green Foxtail” value in assay [5] is 3 (50 to less than 70% of herbicidal effect and crop phytotoxicity). The “herbicidal effect (index), Slender Amaranth” value in assay [6] was 5 (90% or more of herbicidal effect and crop phytotoxicity). Moreover, the “herbicidal effect (index), Velvetleaf” value in assay [7] was 5 (90% or more of herbicidal effect and crop phytotoxicity).
